Reference: ChEMBL document CHEMBL3414533, “Thiophene containing trisubstituted methanes [TRSMs] as identified lead against Mycobacterium tuberculosis” (Eur J Med Chem, 2015)
In brackets after ≈: the same amount, converted by molar mass.

Assays:
[1] = system: Mycobacterium tuberculosis; assay: Antimycobacterial activity against multidrug-resistant Mycobacterium tuberculosis by agar dilution method; type: functional
[2] = system: Mycobacterium tuberculosis; assay: Antimycobacterial activity against rifampicin-resistant Mycobacterium tuberculosis by agar dilution method; type: functional

COc1ccc(C(c2ccc(OCCN(C(C)C)C(C)C)cc2)c2cccs2)cc1 (configuration not stated)
MIC [1]: 6.25 µM (≈ 2.65 µg/mL)
MIC [2]: 6.25 µM (≈ 2.65 µg/mL)
